Source: the supplement of paper PMC10307832

Legend:
Assay in all cases: relative viability (nuclei count vs DMSO), 5 days (fraction); higher = more cells survive
[1] = compound: CC1=CC(=CC=C1)NC2=NC(=CS2)C3=CC=NC=C3 + N=C(N)NC(=N)NCCc1ccccc1 [Phenformin] (partner 250 µM)
How it was run: (§1)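 Lung cancer cell lines in 1536-well plates got either a single drug or a fixed anchor-drug dose together with five library-drug doses (not always all listed) in √10 steps, by pin tool, on the day after seeding. Nuclei were counted after 5 days, and relative viability is the treated-to-vehicle ratio of nuclei counts. Values are medians of duplicate plates.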

Masitinib + Luminespib = compound: Cc1ccc(NC(=O)c2ccc(CN3CCN(C)CC3)cc2)cc1Nc1nc(-c2cccnc2)cs1 [Masitinib] + CCNC(=O)c1noc(-c2cc(C(C)C)c(O)cc2O)c1-c1ccc(CN2CCOCC2)cc1 [Luminespib] (partner 0.01 µM)
How it was run: as §1

Masitinib + Alpelisib = compound: Cc1ccc(NC(=O)c2ccc(CN3CCN(C)CC3)cc2)cc1Nc1nc(-c2cccnc2)cs1 [Masitinib] + Cc1nc(NC(=O)N2CCC[C@H]2C(N)=O)sc1-c1ccnc(C(C)(C)C(F)(F)F)c1 [Alpelisib] (partner 2 µM)
How it was run: as §1

[2] = compound: CC1=CC(=CC=C1)NC2=NC(=CS2)C3=CC=NC=C3 + CC1(C)CCC(c2ccc(Cl)cc2)=C(CN2CCN(c3ccc(C(=O)NS(=O)(=O)c4ccc(N[C@H](CCN5CCOCC5)CSc5ccccc5)c(S(=O)(=O)C(F)(F)F)c4)cc3)CC2)C1 [Navitoclax] (partner 0.5 µM)
How it was run: as §1

Cell Line | relative viability ([1]; first compound 0.08 µM) | relative viability ([1]; first compound 0.253 µM) | relative viability ([1]; first compound 0.8 µM) | relative viability ([1]; first compound 2.53 µM) | relative viability ([1]; first compound 8 µM) | relative viability (Masitinib + Luminespib; first compound 0.01 µM) | relative viability (Masitinib + Luminespib; first compound 0.03162 µM) | relative viability (Masitinib + Luminespib; first compound 0.1 µM) | relative viability (Masitinib + Luminespib; first compound 0.3162 µM) | relative viability (Masitinib + Luminespib; first compound 1 µM) | relative viability (Masitinib + Alpelisib; first compound 0.01 µM) | relative viability (Masitinib + Alpelisib; first compound 0.03162 µM) | relative viability (Masitinib + Alpelisib; first compound 0.1 µM) | relative viability (Masitinib + Alpelisib; first compound 0.3162 µM) | relative viability (Masitinib + Alpelisib; first compound 1 µM) | relative viability ([2]; first compound 0.08 µM) | relative viability ([2]; first compound 0.253 µM) | relative viability ([2]; first compound 0.8 µM) | relative viability ([2]; first compound 2.53 µM) | relative viability ([2]; first compound 8 µM)
NCI-H3122 | 0.359 | 0.348 | 0.364 | 0.373 | 0.343 | 0.109 | 0.0826 | 0.0942 | 0.109 | 0.0792 | 0.87 | 0.758 | 0.785 | 0.899 | 0.821 | 1.02 | 1.04 | 1.07 | 1.08 | 1.04
PC-3 [JPC-3] | 0.426 | 0.451 | 0.461 | 0.486 | 0.498 | 0.741 | 0.571 | 0.774 | 0.783 | 0.677 | 1.01 | 1.03 | 0.978 | 1.03 | 1.01 | 0.791 | 0.671 | 0.719 | 0.705 | 0.681
PC-14 | 0.47 | 0.457 | 0.601 | 0.521 | 0.502 | 0.15 | 0.222 | 0.246 | 0.151 | 0.196 | 0.915 | 0.865 | 1.11 | 1.01 | 0.846 | 0.922 | 1.01 | 0.892 | 0.933 | 0.439
RERF-LC-KJ | 0.449 | 0.403 | 0.373 | 0.384 | 0.363 | 1.41 | 1.15 | 1.42 | 1.23 | 1.27 | 0.865 | 0.762 | 0.917 | 0.842 | 0.738 | 0.71 | 0.627 | 0.631 | 0.638 | 0.275
SK-LU-1 | 0.452 | 0.471 | – | 0.731 | 0.63 | 0.208 | 0.195 | 0.2 | 0.221 | 0.193 | 1.12 | 1.14 | 0.984 | 1.31 | 1.03 | 0.837 | 1.22 | 0.636 | 1.06 | 1.35
SK-MES-1 | 0.626 | 0.565 | 0.592 | 0.656 | 0.547 | 0.544 | 0.776 | 0.992 | 0.707 | 0.686 | 1.07 | 0.946 | 1.08 | 0.921 | 0.732 | 0.94 | 1.02 | 1.1 | 1.06 | 1.08
SW 1573 | 0.316 | 0.36 | 0.352 | 0.389 | 0.399 | 0.172 | 0.231 | 0.214 | 0.261 | 0.302 | 0.89 | 0.768 | 0.873 | 0.831 | 0.66 | 0.916 | 0.965 | 0.924 | 1.1 | 0.841
